Where two headings read alike, the source gives them in different places.
Experiment: Plasma concentration versus time of Compound I and metabolite Compound III in patients dosed QD or BID with Form B of Compound II plus fulvestrant
Assay type: in vivo, human
Settings: for concentration at 0 h / concentration at 1 h / concentration at 2 h / concentration at 3 h / concentration at 4 h / concentration at 6 h / concentration at 8 h / concentration at 10 h / concentration at 12 h / concentration at 8 day / concentration at 15 day / concentration at 22 day: human, plasma, oral, 100 mg; for concentration at 1 h: Day 1, 1.0 h; for concentration at 2 h: Day 1, 2.0 h; for concentration at 3 h: Day 1, 3.0 h; for concentration at 4 h: Day 1, 4.0 h; for concentration at 6 h: Day 1, 6.0 h; for concentration at 8 h: Day 1, 8.0 h; for concentration at 10 h: Day 1, 10.0 h; for concentration at 12 h: Day 1, 12.0 h
Text: Patients were enrolled into 1 of 2 parallel, independently operating, dose-escalation dosing cohorts with Form B of Compound II administered continuously either once daily (QD) or twice daily (BID) with food with fixed-dose fulvestrant (intramuscularly every 14 days for the first three injections and then every 28 days). Pre- or perimenopausal patients also received goserelin for the duration of study treatment. A […] agonist was started at least 28 days before the first dose of Form B, and those patients who were taking another LHRH agonist were switched to goserelin on Day 1. Patients were split into […] cohorts providing once a day (QD) dosing of 200 mg, 300 mg, 400 mg, 500 mg, or 650 mg of Form B, or twice a day (BID) dosing of 100 mg, 150 mg, or 200 mg of Form B. The second dose in BID cohorts was not administered in the evening until at least 12 hours after the initial morning dose of Form B. The dosing cohorts for Form B of Compound II are provided in Table 1.
Blood samples were collected at the following time points relative to the morning dose of Form B at Day 1 and at Day 29: pre-dose (0 hour) and 1, 2, 3, 4, 6, 8, 10, 12 (prior to the evening dose in the BID cohorts), and 24 (prior to the next day's morning dose) hours after dosing. A 5-minute time window was allowed for samples collected between the predose and 3 hours after Form B dosing. A 15-minute window was allowed for samples collected between 4 to 12 hours after Form B dosing. A 1-hour window was allowed for the sample collected 24 hours after Form B dosing. Blood samples for Compound I PK trough levels were collected pre-dose at Day 8, Day 15, and Day 22 prior to the morning administration of Compound I. Plasma concentrations of Compound I and its metabolite, Compound III, were measured using validated methods.
Analysis of plasma concentration versus time data for calculation of standard pharmacokinetic (PK) parameters following oral administration was conducted using Phoenix WinNonlin version 6.3 using actual blood sampling times.

[1] = Cohort 3, 400 mg QD of Form B, Day 8
[2] = Cohort 3, 400 mg QD of Form B, Day 15
[3] = Cohort 3, 400 mg QD of Form B, Day 22
[4] = Cohort 4, 500 mg QD of Form B, Day 8
[5] = Cohort 4, 500 mg QD of Form B, Day 15
[6] = Cohort 4, 500 mg QD of Form B, Day 22
[7] = Cohort 7, 150 mg BID of Form B, Day 29, 0.0 h
[8] = Cohort 7, 150 mg BID of Form B, Day 29, 1.0 h
[9] = Cohort 7, 150 mg BID of Form B, Day 29, 2.0 h
[10] = Cohort 7, 150 mg BID of Form B, Day 29, 3.0 h
[11] = Cohort 7, 150 mg BID of Form B, Day 29, 4.0 h
[12] = Cohort 7, 150 mg BID of Form B, Day 29, 6.0 h
[13] = Cohort 7, 150 mg BID of Form B, Day 29, 8.0 h
[14] = Cohort 7, 150 mg BID of Form B, Day 29, 10.0 h
[15] = Cohort 7, 150 mg BID of Form B, Day 29, 12.0 h
[16] = Cohort 8, 200 mg BID of Form B, Day 8
[17] = Cohort 8, 200 mg BID of Form B, Day 15
[18] = Cohort 8, 200 mg BID of Form B, Day 22
[19] = Cohort 8, 200 mg BID of Form B, Day 29, 0.0 h
[20] = Cohort 8, 200 mg BID of Form B, Day 29, 1.0 h
[21] = Cohort 8, 200 mg BID of Form B, Day 29, 2.0 h
[22] = Cohort 8, 200 mg BID of Form B, Day 29, 3.0 h
[23] = Cohort 8, 200 mg BID of Form B, Day 29, 4.0 h
[24] = 100 mg BID of Form B, Mean, read-out: Compound I Concentration
[25] = 100 mg BID of Form B, Median, read-out: Compound I Concentration

## CC(C)N1CCN(c2ccc(Nc3ncc4cc5n(c4n3)C3(CCCCC3)CNC5=O)nc2)CC1 [Compound I, 2′-((5-(4-isopropylpiperazin-1-yl)pyridin-2-yl)amino)-7′,8′-dihydro-6′H-spiro[cyclohexane-1,9′-pyrazino[1′,2′:1,5]pyrrolo[2,3-d]pyrimidin]-6′-one]
200 mg QD of Form B, Day 8, Mean
  Trough Compound I Concentration: 4.93 ng/mL
200 mg QD of Form B, Day 8, Median
  Trough Compound I Concentration: 4.22 ng/mL
200 mg QD of Form B, Day 15, Mean
  Trough Compound I Concentration: 5.56 ng/mL
200 mg QD of Form B, Day 15, Median
  Trough Compound I Concentration: 4.59 ng/mL
200 mg QD of Form B, Day 22, Mean
  Trough Compound I Concentration: 6.24 ng/mL
200 mg QD of Form B, Day 22, Median
  Trough Compound I Concentration: 5.32 ng/mL
300 mg QD of Form B, Day 8, Mean
  Trough Compound I Concentration: 14.0 ng/mL
300 mg QD of Form B, Day 8, Median
  Trough Compound I Concentration: 17.3 ng/mL
300 mg QD of Form B, Day 15, Mean
  Trough Compound I Concentration: 16.7 ng/mL
300 mg QD of Form B, Day 15, Median
  Trough Compound I Concentration: 19.9 ng/mL
300 mg QD of Form B, Day 22, Mean
  Trough Compound I Concentration: 16.4 ng/mL
300 mg QD of Form B, Day 22, Median
  Trough Compound I Concentration: 10.9 ng/mL
[1]
  Trough Compound I Concentration, Max: 6.85 ng/mL
  Trough Compound I Concentration, Mean: 5.63 ng/mL
  Trough Compound I Concentration, Median: 6.16 ng/mL
  Trough Compound I Concentration, Min: 3.87 ng/mL
[2]
  Trough Compound I Concentration, Max: 10.2 ng/mL
  Trough Compound I Concentration, Mean: 6.66 ng/mL
  Trough Compound I Concentration, Median: 5.33 ng/mL
  Trough Compound I Concentration, Min: 4.46 ng/mL
[3]
  Trough Compound I Concentration, Max: 11.7 ng/mL
  Trough Compound I Concentration, Mean: 9.34 ng/mL
  Trough Compound I Concentration, Median: 10.4 ng/mL
  Trough Compound I Concentration, Min: 5.91 ng/mL
[4]
  Trough Compound I Concentration, Mean: 17.1 ng/mL
  Trough Compound I Concentration, Min: 10.6 ng/mL
[5]
  Trough Compound I Concentration, Mean: 23.8 ng/mL
  Trough Compound I Concentration, Min: 14.5 ng/mL
[6]
  Trough Compound I Concentration, Mean: 19.8 ng/mL
  Trough Compound I Concentration, Min: 14.4 ng/mL
Cohort 7, 150 mg BID of Form B, Day 15
  Trough Compound I Concentration, Mean: 24.8 ng/mL
Cohort 7, 150 mg BID of Form B, Day 22
  Trough Compound I Concentration, Mean: 20.6 ng/mL
[7]
  Compound I Concentration, Mean: 26.2 ng/mL
  Compound I Concentration, Min: 9.03 ng/mL
[8]
  Compound I Concentration, Max: 57.0 ng/mL
  Compound I Concentration, Mean: 37.6 ng/mL
  Compound I Concentration, Min: 27.0 ng/mL
[9]
  Compound I Concentration, Max: 64.9 ng/mL
  Compound I Concentration, Mean: 41.3 ng/mL
  Compound I Concentration, Min: 24.6 ng/mL
[10]
  Compound I Concentration, Max: 76.6 ng/mL
  Compound I Concentration, Mean: 46.0 ng/mL
  Compound I Concentration, Min: 25.7 ng/mL
[11]
  Compound I Concentration, Max: 83.2 ng/mL
  Compound I Concentration, Mean: 50.2 ng/mL
  Compound I Concentration, Min: 30.5 ng/mL
[12]
  Compound I Concentration, Max: 67.2 ng/mL
  Compound I Concentration, Mean: 38.0 ng/mL
  Compound I Concentration, Min: 20.3 ng/mL
[13]
  Compound I Concentration, Max: 67.4 ng/mL
  Compound I Concentration, Mean: 36.7 ng/mL
  Compound I Concentration, Min: 15.8 ng/mL
[14]
  Compound I Concentration, Max: 59.7 ng/mL
  Compound I Concentration, Mean: 32.2 ng/mL
  Compound I Concentration, Min: 13.0 ng/mL
[15]
  Compound I Concentration, Max: 58.1 ng/mL
  Compound I Concentration, Mean: 28.5 ng/mL
  Compound I Concentration, Min: 10.2 ng/mL
[16]
  Trough Compound I Concentration, Max: 19.7 ng/mL
  Trough Compound I Concentration, Mean: 9.41 ng/mL
  Trough Compound I Concentration, Median: 6.82 ng/mL
  Trough Compound I Concentration, Min: 1.72 ng/mL
[17]
  Trough Compound I Concentration, Max: 16.3 ng/mL
  Trough Compound I Concentration, Mean: 11.0 ng/mL
  Trough Compound I Concentration, Median: 11.0 ng/mL
  Trough Compound I Concentration, Min: 5.71 ng/mL
[18]
  Trough Compound I Concentration, Max: 15.5 ng/mL
  Trough Compound I Concentration, Mean: 7.11 ng/mL
  Trough Compound I Concentration, Median: 5.83 ng/mL
  Trough Compound I Concentration, Min: 0.00 ng/mL
[19]
  Compound I Concentration, Max: 17.2 ng/mL
  Compound I Concentration, Median: 6.54 ng/mL
[20]
  Compound I Concentration, Max: 13.3 ng/mL
  Compound I Concentration, Median: 9.29 ng/mL
[21]
  Compound I Concentration, Max: 17.0 ng/mL
  Compound I Concentration, Median: 13.3 ng/mL
[22]
  Compound I Concentration, Max: 22.5 ng/mL
  Compound I Concentration, Median: 15.6 ng/mL
[23]
  Compound I Concentration, Max: 30.5 ng/mL
  Compound I Concentration, Median: 25.1 ng/mL
Cohort 8, 200 mg BID of Form B, Day 29, 6.0 h
  Compound I Concentration, Median: 21.1 ng/mL
Cohort 8, 200 mg BID of Form B, Day 29, 8.0 h
  Compound I Concentration, Median: 14.8 ng/mL
Cohort 8, 200 mg BID of Form B, Day 29, 10.0 h
  Compound I Concentration, Median: 11.7 ng/mL
Cohort 8, 200 mg BID of Form B, Day 29, 12.0 h
  Compound I Concentration, Median: 12.4 ng/mL
100 mg BID of Form B, Day 1, 0.0 h, Mean, read-out: Compound I Concentration
  concentration at 0 h: 0 ng/mL
100 mg BID of Form B, Day 1, 0.0 h, Median, read-out: Compound I Concentration
  concentration at 0 h: 0 ng/mL
[24]
  concentration at 1 h: 2.8 ng/mL
  concentration at 2 h: 6.21 ng/mL
  concentration at 3 h: 8.72 ng/mL
  concentration at 4 h: 8.98 ng/mL
  concentration at 6 h: 5.7 ng/mL
  concentration at 8 h: 4.07 ng/mL
  concentration at 10 h: 3.29 ng/mL
  concentration at 12 h: 2.93 ng/mL
[25]
  concentration at 1 h: 2.6 ng/mL
  concentration at 2 h: 5.71 ng/mL
  concentration at 3 h: 8.09 ng/mL
  concentration at 4 h: 7.47 ng/mL
  concentration at 6 h: 5.12 ng/mL
  concentration at 8 h: 3.71 ng/mL
  concentration at 10 h: 2.91 ng/mL
  concentration at 12 h: 2.2 ng/mL
Cohort 6, 100 mg BID of Form B, Day 8, read-out: Trough Compound I Concentration, Max
  concentration at 8 day: 23.7 ng/mL
Cohort 6, 100 mg BID of Form B, Day 8, read-out: Trough Compound I Concentration, Mean
  concentration at 8 day: 8.78 ng/mL
Cohort 6, 100 mg BID of Form B, Day 8, read-out: Trough Compound I Concentration, Median
  concentration at 8 day: 5.49 ng/mL
Cohort 6, 100 mg BID of Form B, Day 8, read-out: Trough Compound I Concentration, Min
  concentration at 8 day: 3.29 ng/mL
Cohort 6, 100 mg BID of Form B, Day 15, read-out: Trough Compound I Concentration, Max
  concentration at 15 day: 22 ng/mL
Cohort 6, 100 mg BID of Form B, Day 15, read-out: Trough Compound I Concentration, Mean
  concentration at 15 day: 8.92 ng/mL
Cohort 6, 100 mg BID of Form B, Day 15, read-out: Trough Compound I Concentration, Median
  concentration at 15 day: 6.34 ng/mL
Cohort 6, 100 mg BID of Form B, Day 15, read-out: Trough Compound I Concentration, Min
  concentration at 15 day: 3.31 ng/mL
Cohort 6, 100 mg BID of Form B, Day 22, read-out: Trough Compound I Concentration, Max
  concentration at 22 day: 10.9 ng/mL
Cohort 6, 100 mg BID of Form B, Day 22, read-out: Trough Compound I Concentration, Mean
  concentration at 22 day: 5.7 ng/mL
Cohort 6, 100 mg BID of Form B, Day 22, read-out: Trough Compound I Concentration, Median
  concentration at 22 day: 4.42 ng/mL
Cohort 6, 100 mg BID of Form B, Day 22, read-out: Trough Compound I Concentration, Min
  concentration at 22 day: 2.34 ng/mL
Cohort 6, 100 mg BID of Form B, Day 29, 0.0 h, read-out: Compound I Concentration, Max
  concentration at 0 h: 9.2 ng/mL
Cohort 6, 100 mg BID of Form B, Day 29, 0.0 h, read-out: Compound I Concentration, Mean
  concentration at 0 h: 4.35 ng/mL

— patent US11357779B2 (G1 Therapeutics, Inc., priority 2018, dated 2022)
